Patent US12171229B2, “Heteroaryl-triazole and heteroaryl-tetrazole compounds as pesticides” (BAYER AKTIENGESELLSCHAFT, priority 2018, dated 2024)

Columns and labels:
Assay type in all cases: in vivo
[1] = tested on: Diabrotica balteata; test: Diabrotica balteata spray test; settings: Diabrotica balteata, in Triticum aestivum, 168 h, after 7 days, larvae on wheat seeds, read-out: efficacy (seedlings grown up); for pest or weed control at 160 µg/disc, 500 g/ha: 160 μg/well (=500 g/ha); for pest or weed control at 80 µg/disc, 250 g/ha: 80 μg/well (=250 g/ha)
Procedure: Diabrotica balteata—Spray Test [table] To produce a suitable preparation of active compound, 1 part by weight of active compound is mixed with the stated amount of solvent, and the concentrate is diluted with water, containing an emulsifier concentration of 1000 ppm, to the desired concentration. Further test concentrations are prepared by dilution with emulsifier containing water. Soaked wheat seeds (Triticum aestivum) are placed in a multiple well plate filled with agar and some water and are incubated for 1 day to germinate (5 seeds per well). The germinated wheat seeds are sprayed with a test solution containing the desired concentration of the active ingredient. Afterwards each unit is infected with 10-20 larvae of the banded cucumber beetle (Diabrotica balteata). After 7 days efficacy in % is determined. 100% means all the seedlings have grown up like in the untreated, uninfected control; 0% means none of the seedlings have grown.

[2] = tested on: Myzus persicae; test: Myzus persicae oral test; settings: 120 h, 4 ppm, after 5 days
Procedure: Solvent: 100 parts by weight acetone
To produce a suitable preparation of active compound, 1 part by weight of active compound is mixed with the stated amount of solvent, and the concentrate is diluted with water to the desired concentration.
50 μl compound solution is filled in microtiter plates and 150 μl IPL41 insect medium (33%+15% sugar) is added to obtain a total volume of 200 μl per well. Afterwards the plates are sealed with parafilm through which a mixed population of the green peach aphid (Myzus persicae) can suck on the compound preparation.
(§1) After 5 days mortality in % is determined. 100% means all aphids have been killed and 0% means none of the aphids have been killed.

[3] = tested on: Myzus persicae; test: Myzus persicae spray test; settings: foliar, 120 h, after 5 days, Chinese cabbage leaf disks
Procedure: Myzus persicae—Spray Test
(§2) To produce a suitable preparation of active compound, 1 part by weight of active compound is mixed with the stated amount of solvents and is diluted with water, containing an emulsifier concentration of 1000 ppm, to the desired concentration. Further test concentrations are prepared by dilution with emulsifier containing water.
Chinese cabbage (Brassica pekinensis) leaf disks infected with all instars of the green peach aphid (Myzus persicae), are sprayed with a preparation of the active ingredient of the desired concentration.
as §1

[4] = tested on: Nezara viridula; test: Nezara viridula spray test; settings: 96 h, after 4 days, larvae on barley plants
Procedure: Nezara viridula—Spray Test
as §2, with “solvent,” for “solvents”, “and the concentrate” for “and”
Barley plants (Hordeum vulgare) infested with larvae of the southern green stink bug (Nezara viridula) are sprayed with a test solution containing the desired concentration of the active ingredient.
After 4 days mortality in % is determined. 100% means all the stink bugs have been killed: 0% means none of the stink bugs have been killed.

[5] = tested on: Spodoptera frugiperda; test: Spodoptera frugiperda spray test; settings: 168 h, after 7 days, larvae on maize leaf sections
Procedure: Spodoptera frugiperda—Spray Test
as §2
Maize (Zea mays) leaf sections are sprayed with a preparation of the active ingredient of the desired concentration. Once dry, the leaf sections are infested with fall armyworm larvae (Spodoptera frugiperda).
After 7 days mortality in % is determined. 100% means all caterpillars have been killed and 0% means none of the caterpillars have been killed.

[6] = tested on: Boophilus microplus; test: Boophilus microplus injection test; settings: Rhipicephalus microplus, 168 h; 20 μg/animal injected into the abdomen; adult engorged female ticks; egg deposition after 7 days; read-out: efficacy (infertile eggs)
Procedure: Boophilus Microplus—Injection Test Solvent: dimethyl sulfoxide To produce a suitable preparation of active compound, 10 mg of active compound are dissolved in 0.5 ml solvent, and the concentrate is diluted with solvent to the desired concentration. Five adult engorged female ticks (Boophilus microplus) are injected with 1 μl compound solution into the abdomen. The ticks are transferred into replica plates and incubated in a climate chamber. After 7 days egg deposition of fertile eggs is monitored. Eggs where fertility is not visible are stored in a climate chamber till hatching after about 42 days. An efficacy of 100% means all eggs are infertile; 0% means all eggs are fertile.

[7] = tested on: Ctenocephalides felis; test: Ctenocephalides felis oral test; settings: 48 h, 100 ppm in cattle blood, after 2 days, adult unfed cat fleas
Procedure: Ctenocephalides Felis—Oral Test
Solvent: dimethyl sulfoxide
To produce a suitable preparation of active compound, 10 mg of active compound are dissolved in 0.5 ml solvent, and the concentrate is diluted with cattle blood to the desired concentration.
Approximately 20 adult unfed cat fleas (Ctenocephalides felis) are placed in flea chambers. The blood chamber, sealed with parafilm on the bottom, are filled with cattle blood supplied with compound solution and placed on the gauze covered top of the flea chamber, so that the fleas are able to suck the blood. The blood chamber is heated to 37° C. whereas the flea chamber is kept at room temperature.
After 2 days mortality in % is determined. 100% means all the fleas have been killed; 0% means none of the fleas have been killed.

[8] = tested on: Aedes aegypti strain MONHEIM; test: Aedes aegypti test (AEDSAE surface treatment & contact assay); settings: surface concentration 20 mg/m^2, exposure 30 minutes, 24 hours after contact, read-out: efficacy (mortality)
Procedure: Aedes Aegypti Test (AEDSAE Surface Treatment & Contact Assay)
(§3) Solvent: Aceton+2000 ppm rapeseed oil methyl ester (RME)
(§4) In order to produce a sufficient, active ingredient containing solution it is necessary to solve the test compound in the solvent-mix (acetone at 2 mg/ml/RME 2000 ppm). This solution is pipetted onto a glazed tile and after evaporation of the acetone, adult mosquitoes of the species Aedes aegypti strain MONHEIM are placed onto the dried surface. The exposure time is 30 minutes.
(§5) Mortality in percent (%) is determined 24 hours after contact of the insects to the treated surface. 100% mortality means that all tested insects are dead, whereas 0% means that no insect died.

[9] = tested on: Culex quinquefasciatus strain P00; test: Culex quinquefasciatus test (CULXFA surface treatment & contact assay); settings: surface concentration 4 mg/m^2, exposure 30 minutes, 24 hours after contact, read-out: efficacy (mortality)
Procedure: Culex Quinquefasciatus Test (CULXFA Surface Treatment & Contact Assay)
as §3
as §4, with “Culex quinquefasciatus” for “Aedes aegypti”, “P00” for “MONHEIM”
as §5

[10] = tested on: Ctenocephalides felis; test: Ctenocephalides felis in-vitro contact test, adult cat flea; settings: 5 μg/cm^2 (=500 g/ha), after 48 hours, adult cat fleas, read-out: efficacy (fleas dead or moribund)
Procedure: Ctenocephalides Felis—In-Vitro Contact Tests Adult Cat Flea 9 mg compound is solved in 1 ml acetone and diluted with acetone to the desired concentration. 250 μl of the test solution is filled in 25 ml glass test tubes and homogeneously distributed on the inner walls by rotation and tilting on a shaking device (2 h at 30 rpm). With a compound concentration of 900 ppm, an inner surface of 44.7 cm^2 and a homogeneous distribution, a dose of 5 μg/cm^2 is achieved. After the solvent has evaporated, each test tube is filled with 5-10 adult cat fleas (Ctenocephalides felis), closed with a perforated lid and incubated in a lying position at room temperature and relative humidity. After 48 hours efficacy is determined. The fleas are patted on the ground of the tubes and are incubated on a heating plate at 45-50° C. for at most 5 minutes. Immotile or uncoordinated moving fleas, which are not able to escape the heat by climbing upwards, are marked as dead or moribund. […] An efficacy of 100% means all fleas are dead or moribund; 0% means no fleas are dead or moribund.

Structure (SMILES): C[C@H](NC(=O)c1cc(Cl)cc(OC(F)F)c1)c1ncnn1-c1ccc(C#N)cn1 [Example I-107]
- pest or weed control at 160 µg/disc, 500 g/ha [1]: 100%
- mortality at 4 ppm [2]: 100%
- mortality at 100 g/ha [3]: 90%
- mortality at 500 g/ha [3]: 90%
- mortality at 100 g/ha [4]: 100%
- mortality at 500 g/ha [4]: 100%
- mortality at 100 g/ha [5]: 100%
- mortality at 500 g/ha [5]: 100%

Structure (SMILES): CC(=O)Nc1ccc(-n2ncnc2[C@H](C)NC(=O)c2cc(Cl)cc(OC(F)(F)F)c2)nc1 [Example I-106]
- pest or weed control at 80 µg/disc, 250 g/ha [1]: 100%
- pest or weed control at 160 µg/disc, 500 g/ha [1]: 100%
- mortality at 4 ppm [2]: 100%
- mortality at 500 g/ha [3]: 90%
- mortality at 500 g/ha [4]: 100%
- mortality at 100 g/ha [5]: 100%
- mortality at 500 g/ha [5]: 100%

Structure (SMILES): C[C@H](NC(=O)c1cc(F)c(F)c(F)c1)c1ncnn1-c1ccc(C#N)cn1 [Example I-020]
- pest or weed control at 0.02 mg [6]: 100%
- mortality at 100 ppm [7]: 100%
- pest or weed control at 80 µg/disc, 250 g/ha [1]: 100%
- pest or weed control at 160 µg/disc, 500 g/ha [1]: 100%
- mortality at 500 g/ha [5]: 100%
- mortality at 20 mg/m2 [8]: 90 to 100%
- mortality at 4 mg/m2 [9]: 90 to 100%

Structure (SMILES): C[C@H](NC(=O)c1cc(Cl)cc(OC(F)(F)F)c1)c1ncnn1-c1ccc(NC(=O)C2CC2)cn1 [Example I-105]
- pest or weed control at 80 µg/disc, 250 g/ha [1]: 100%
- pest or weed control at 160 µg/disc, 500 g/ha [1]: 100%
- mortality at 4 ppm [2]: 100%
- mortality at 500 g/ha [3]: 90%
- mortality at 100 g/ha [4]: 100%
- mortality at 500 g/ha [4]: 100%
- mortality at 100 g/ha [5]: 100%
- mortality at 500 g/ha [5]: 100%

Structure (SMILES): CC[C@H](NC(=O)c1cc(Cl)cc(OC(F)(F)F)c1)c1ncnn1-c1ccc([N+](=O)[O-])cn1 [Example I-071]
- pest or weed control at 5 µg/cm2 [10]: 80%

Structure (SMILES): C[C@H](NC(=O)c1cc(Cl)cc(C(F)(F)F)c1)c1ncnn1-c1nccs1 [Example I-082, 3-chloro-N-{(1S)-1-[1-(1,3-thiazol-2-yl)-1H-1,2,4-triazol-5-yl]ethyl}-5-(trifluoromethyl)benzamide]
- pest or weed control at 5 µg/cm2 [10]: 90%
- pest or weed control at 80 µg/disc, 250 g/ha [1]: 100%
- pest or weed control at 160 µg/disc, 500 g/ha [1]: 100%
- mortality at 500 g/ha [4]: 100%
- mortality at 100 g/ha [5]: 100%
- mortality at 500 g/ha [5]: 100%

Structure (SMILES): C[C@H](NC(=O)c1cc(F)c(Cl)c(F)c1)c1ncnn1-c1ccc(C#N)cn1 [Example I-021]
- mortality at 100 ppm [7]: 100%
- mortality at 4 ppm [2]: 100%
- mortality at 100 g/ha [3]: 100%
- mortality at 500 g/ha [5]: 100%

Structure (SMILES): Cc1nc([C@H](C)NC(=O)c2cc(Cl)cc(Cl)c2)n(-c2ccc(C#N)cn2)n1 [Example I-115]
- pest or weed control at 160 µg/disc, 500 g/ha [1]: 100%
- mortality at 4 ppm [2]: 100%
- mortality at 100 g/ha [3]: 90%
- mortality at 500 g/ha [3]: 100%
- mortality at 500 g/ha [4]: 100%
- mortality at 100 g/ha [5]: 100%
- mortality at 500 g/ha [5]: 100%

Structure (SMILES): C[C@H](NC(=O)c1cc(Cl)cc(C(F)(F)F)c1)c1ncnn1-c1ccc(NC(=O)C2(Cl)CC2)cn1 [Example I-104]
- pest or weed control at 160 µg/disc, 500 g/ha [1]: 100%
- mortality at 4 ppm [2]: 90%
- mortality at 500 g/ha [3]: 90%
- mortality at 500 g/ha [4]: 90%
- mortality at 100 g/ha [5]: 100%
- mortality at 500 g/ha [5]: 100%

Structure (SMILES): C[C@H](NC(=O)c1cc(Cl)cc(C(F)(F)F)c1)c1ncnn1-c1ccc(NC(=O)C2(C#N)CC2)cn1 [Example I-076]
- pest or weed control at 0.02 mg [6]: 100%
- mortality at 100 ppm [7]: 90%
- pest or weed control at 80 µg/disc, 250 g/ha [1]: 100%
- pest or weed control at 160 µg/disc, 500 g/ha [1]: 100%
- mortality at 4 ppm [2]: 100%
- mortality at 500 g/ha [3]: 100%
- mortality at 100 g/ha [5]: 100%
- mortality at 500 g/ha [5]: 100%

Structure (SMILES): C[C@H](NC(=O)c1cc(Cl)cc(C(F)(F)F)c1)c1ncnn1-c1ccc(NC(=S)C2CC2)cn1 [Example I-098]
- mortality at 100 ppm [7]: 100%
- pest or weed control at 80 µg/disc, 250 g/ha [1]: 100%
- pest or weed control at 160 µg/disc, 500 g/ha [1]: 100%
- mortality at 4 ppm [2]: 100%
- mortality at 100 g/ha [3]: 90%
- mortality at 500 g/ha [3]: 90%
- mortality at 500 g/ha [4]: 90%
- mortality at 100 g/ha [5]: 100%
- mortality at 500 g/ha [5]: 100%

Structure (SMILES): C[C@H](NC(=O)c1cc(Cl)cc(C(F)(F)F)c1)c1ncnn1-c1ccc(NS(C)(=O)=O)cn1 [Example I-054]
- pest or weed control at 80 µg/disc, 250 g/ha [1]: 100%
- pest or weed control at 160 µg/disc, 500 g/ha [1]: 100%
- mortality at 4 ppm [2]: 100%
- mortality at 100 g/ha [3]: 90%
- mortality at 500 g/ha [3]: 90%
- mortality at 100 g/ha [4]: 90%
- mortality at 500 g/ha [4]: 100%

Structure (SMILES): Cc1nc([C@H](C)NC(=O)c2cc(Cl)cc(OC(F)(F)F)c2)n(-c2ccc(C#N)cn2)n1 [Example I-116]
- pest or weed control at 160 µg/disc, 500 g/ha [1]: 100%
- mortality at 4 ppm [2]: 100%
- mortality at 100 g/ha [3]: 100%
- mortality at 500 g/ha [3]: 100%
- mortality at 100 g/ha [4]: 90%
- mortality at 500 g/ha [4]: 100%
- mortality at 100 g/ha [5]: 100%
- mortality at 500 g/ha [5]: 100%
